Measurements as given in patent publication US20240115712A1, “SEMICARBAZONE-BASED SAPONIN CONJUGATE” (priority 2021, published 2024).
Read-outs that look alike come from different tables or passages of the source.

Columns and labels:
[1] = Release kinetics assay; type: physicochemical; conditions: pH 4.0, 37° C.
Experimental: The SO1861 conjugate of interest was dissolved in an acetate buffer (20 mM, pH 4.0 or pH 5.0), a phosphate buffer (20 mM) or in a PBS buffer (pH 7.4) with a final concentration of 10 μM at 20° C. or at 37° C. The release of SO1861 was followed overtime by monitoring the decrease of the UPLC-UV 4 peak area of the SO1861 conjugate of interest at different time points.

[2] = tested on: human red blood cells (RBC); assay: Haemolysis assay; type: cell-based; conditions: fresh human red blood cells
Experimental: Red blood cells (RBCs) were isolated from a buffy coat using a Ficoll gradient. The obtained RBC pellet (˜4-5 ml) was washed 2× with 50 ml DPBS (without Ca^2+/Mg^2+, PAN-Biotech GmbH). Cells were pelleted by centrifugation for 10 min, 800×g at RT. RBC were counted and resuspended at 500,000,000 c/ml in DPBS (without Ca^2+/Mg^2+), based on total cell count. SO1861-linker dilutions were prepared in DPBS (with Ca^2+/Mg^2+, PAN-Biotech GmbH), at 1.11× final strength. For positive lysis control a 0.02% Triton-X100 solution was prepared in DPBS^+/+. Of all compound solutions 135 μl was dispensed/well in a 96 well V-bottom plate. To this 15 μl RBC suspension was added and mixed shortly (10 sec-600 rpm). The plate was incubated 30 min at RT, with gentle agitation. Afterwards the plate was spun for 10 min at 800×g to pellet the RBC and 100-120 μl supernatant was transferred to a standard 96 wp. Subsequently, the OD at 405 nm was measured on a Thermo Scientific Multiskan FC plate reader (Thermo Scientific).

[3] = tested on: HeLa cells; assay: Cell toxicity (MTS cell viability assay); type: cell-based, human; conditions: saponin alone
Experimental: (§1) Cell viability was determined by an MTS-assay, performed according to the manufacturer's instruction (CellTiter 96® AQueous One Solution Cell Proliferation Assay, Promega). Briefly, the MTS solution was diluted 20× in DMEM without phenol red (PAN-Biotech GmbH) supplemented with 10% FBS (PAN-Biotech GmbH). The cells were washed once with 200 μL PBS per well, after which 100 μL diluted MTS solution was added per well. The plate was incubated for approximately 20-30 minutes at 37° C. Subsequently, the optical density at 492 nm was measured on a Thermo Scientific Multiskan FC plate reader (Thermo Scientific).

[4] = tested on: HSP27 mRNA expression in A431 cells; assay: HSP27 gene silencing (qPCR) in A431 cells; type: cell-based; conditions: Homo sapiens, A-431, saponin titrated +50 nM Trastuzumab-HSP27BNA
From the text: RNA Isolation and Gene Expression Analysis
RNA from cells was isolated and analysed according to standard protocols (Biorad).

[5] = tested on: A431 cells; assay: Cell toxicity (MTS cell viability assay); type: cell-based, human; conditions: saponin alone
Experimental: as §1

[6] = tested on: HeLa cells; type: cell-based, human
Experimental: as §1

[7] = tested on: A431 cells; type: cell-based, human
Experimental: as §1

[8] = +5 pM EGFdianthin or 10 pM cetuximab-saporin or 50 pM Trastuzumab-saporin
[9] = read-out: IC50 nM (Activity; +5 pM EGFdianthin), saponin titrated +5 pM EGFdianthin

SMILES	time to 50% release of SO1861 [1] [h]	IC50 ([2]; Erythrocyte) [µM]	IC50 ([3]; Homo sapiens) [µM]	IC50 [4] [nM]	IC50 [3] [µM]	IC50 [5] [nM]	IC50 [2] [µM]	cell-killing activity compared with the SO1861 derivatives [6, 8]	IC50 [6, 9] [nM]	cell-killing activity compared with the SO1861 derivatives [7, 8]	IC50 [7, 9] [nM]
CC(=O)OC1C(C)OC(OC2C(C)OC(OC(=O)[C@]34CCC(C)(C)CC3C3=CCC5[C@@]6(C)CC[C@H](OC7OC(C(=O)O)C(O)C(OC8OCC(O)C(O)C8O)C7OC7OC(CO)C(O)C(O)C7O)[C@@](C)(C=NNC(=O)CCCCCN7C(=O)CC(SCCO)C7=O)C6CC[C@@]5(C)[C@]3(C)C[C@H]4O)C(OC3OC(C)C(OC4OCC(O)C(OC5OC(CO)C(O)C(O)C5O)C4O)C(O)C3O)C2O)C(O)C1OC1OCC(O)C(O)C1O (stereo partly drawn) [SO1861-EMCH (blocked)]	12	6	–	–	–	–	–	–	–	–	–
CC(=O)OC1C(C)OC(OC2C(C)OC(OC(=O)[C@]34CCC(C)(C)CC3C3=CCC5[C@@]6(C)CC[C@H](OC7OC(C(=O)O)C(O)C(OC8OCC(O)C(O)C8O)C7OC7OC(CO)C(O)C(O)C7O)[C@@](C)(C=NNC(=O)N7CCN(C(=O)CCCCCN8C(=O)C=CC8=O)CC7)C6CC[C@@]5(C)[C@]3(C)C[C@H]4O)C(OC3OC(C)C(OC4OCC(O)C(OC5OC(CO)C(O)C(O)C5O)C4O)C(O)C3O)C2O)C(O)C1OC1OCC(O)C(O)C1O (stereo partly drawn) [SO1861-SC-Mal]	–	250	> 100	600	–	–	–	–	–	–	–
CC(=O)O[C@H]1[C@H](O[C@@H]2OC[C@@H](O)[C@H](O)[C@H]2O)[C@@H](O)[C@H](O[C@@H]2[C@H](O)[C@@H](O[C@@H]3O[C@@H](C)[C@H](O[C@@H]4OC[C@@H](O)[C@H](O[C@@H]5O[C@H](CO)[C@@H](O)[C@H](O)[C@H]5O)[C@H]4O)[C@@H](O)[C@H]3O)[C@H](OC(=O)[C@]34CCC(C)(C)C[C@H]3C3=CC[C@@H]5[C@@]6(C)CC[C@H](O[C@@H]7O[C@H](C(=O)O)[C@@H](O)[C@H](O[C@@H]8OC[C@@H](O)[C@H](O)[C@H]8O)[C@H]7O[C@@H]7O[C@H](CO)[C@H](O)[C@H](O)[C@H]7O)[C@@](C)(C=O)[C@@H]6CC[C@@]5(C)[C@]3(C)C[C@H]4O)O[C@@H]2C)O[C@@H]1C [SO1861]	–	–	–	–	9	2000	10	strongest cell-killing activity	500	strongest cell-killing activity	300
